# Results from US20250074897A1, “PYRIDAZINONES AS PARP7 INHIBITORS” (Ribon Therapeutics, Inc., priority 2019, published 2025).
# Target: T1, PARP7 (TIPARP) (Homo sapiens, UniProt Q7Z3E1)
# T1 sequence (Q7Z3E1 1-657): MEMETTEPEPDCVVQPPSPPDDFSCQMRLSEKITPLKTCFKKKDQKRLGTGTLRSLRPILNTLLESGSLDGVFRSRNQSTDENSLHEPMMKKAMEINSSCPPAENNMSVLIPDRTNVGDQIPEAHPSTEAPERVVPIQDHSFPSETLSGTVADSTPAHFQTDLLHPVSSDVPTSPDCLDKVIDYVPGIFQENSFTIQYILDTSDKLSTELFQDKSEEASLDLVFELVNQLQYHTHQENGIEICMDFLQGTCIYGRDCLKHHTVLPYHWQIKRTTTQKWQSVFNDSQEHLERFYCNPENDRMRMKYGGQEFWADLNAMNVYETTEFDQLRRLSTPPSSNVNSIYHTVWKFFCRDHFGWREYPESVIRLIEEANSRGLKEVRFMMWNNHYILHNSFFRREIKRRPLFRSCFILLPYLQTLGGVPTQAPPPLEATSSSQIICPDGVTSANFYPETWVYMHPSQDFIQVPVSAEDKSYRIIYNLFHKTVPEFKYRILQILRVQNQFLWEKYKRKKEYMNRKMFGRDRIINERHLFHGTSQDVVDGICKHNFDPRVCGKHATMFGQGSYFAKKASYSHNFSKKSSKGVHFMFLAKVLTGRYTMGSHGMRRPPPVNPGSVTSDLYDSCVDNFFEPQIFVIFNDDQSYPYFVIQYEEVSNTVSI
# Assay: Enzymatic assay for inhibition of PARP7: TR-FRET displacement of biotinylated Probe A from the TIPARP active site
# Format: binding
# Conditions: 6 nM TIPARP, 2 nM Probe A, 25° C., 30 min incubation with test compound
# Experimental: Enzymatic Assay for Inhibition of PARP7
# Displacement of Probe A, a biotinylated probe binding to the TIPARP active site, was measured using a time-resolved fluorescence energy transfer (TR-FRET) assay. 20 nL of a dose response curve of each test compound was spotted in black 384-well polystyrene proxiplates (Perkin Elmer) using a Mosquito (TTP Labtech). Reactions were performed in a 8 μL volume by adding 6 μL of TIPARP and Probe A in assay buffer (20 mM HEPES pH=8, 100 mM NaCl, 0.1% bovine serum albumin, 2 mM DTT and 0.002% Tween20), incubating with test compound at 25° C. for 30 min, then adding 2 μL of ULight-anti 6xHis and LANCE Eu-W1024 labeled streptavidin (Perkin Elmer). The final concentrations of TIPARP and Probe A were 6 nM and 2 nM, respectively. The final concentration of ULight-anti 6xHis and LANCE Eu-W1024 labeled streptavidin were 4 nM and 0.25 nM, respectively. Reactions were incubated at 25° C. for an additional 30 min, then read on an Envision platereader equipped with a LANCE/DELFIA top mirror (Perkin Elmer) using excitation of 320 nm and emission of 615 nm and […] with a 90 μs delay. The ratio of the 665/615 nm emission were calculated for each well to determine the amount of complex of TIPARP and Probe A in each well. Control wells containing a negative control of 0.25% DMSO vehicle or a positive control of 100 μM 5-(5-(piperidin-4-yloxy)isoindolin-2-yl)-4-(trifluoromethyl)pyridazin-3(2H)-one were used to calculate the % inhibition as described below:
# where TRFempd is the TR-FRET ratio from the compound treated well, TRFmin is the TR-FRET ratio from the 5-(5-(piperidin-4-yloxy)isoindolin-2-yl)-4-(trifluoromethyl)pyridazin-3(2H)-one-treated positive control well and TRFmax is the TR-FRET ratio from the DMSO-treated negative control well.
# The % inhibition values were plotted as a function of compound concentration and the following 4-parameter fit was applied to derive the IC50 values:
# where top and bottom are normally allowed to float, but may be fixed at 100 or 0 respectively in a 3-parameter fit. The Hill Coefficient is normally allowed to float but may also be fixed at 1 in a 3-parameter fit. Y is the % inhibition and X is the compound concentration.
row,Structure (SMILES),IC50 [nM]
1,"C[C@@H](COC[C@@H](O)C(=O)N1CCN(c2ncc(C(F)(F)F)cn2)CC1)Nc1cn[nH]c(=O)c1C(F)(F)F (single isomer, unassigned) [Example 1A]",< 100
2,"C[C@@H](COC[C@H](O)C(=O)N1CCN(c2ncc(C(F)(F)F)cn2)CC1)Nc1cn[nH]c(=O)c1C(F)(F)F (single isomer, unassigned) [Example 1B]",< 100
3,"C[C@@H](COC[C@@H](O)C(=O)N1CCN(c2ncc(Cl)cn2)CC1)Nc1cn[nH]c(=O)c1C(F)(F)F (single isomer, unassigned) [Example 6A]",< 100
4,"C[C@@H](COC[C@H](O)C(=O)N1CCN(c2ncc(Cl)cn2)CC1)Nc1cn[nH]c(=O)c1C(F)(F)F (single isomer, unassigned) [Example 6B]",< 100
5,"C[C@@H](COC[C@@H](O)C(=O)N1CCN(c2ncc(C(F)(F)F)cn2)CC1)Oc1cn[nH]c(=O)c1C(F)(F)F (single isomer, unassigned) [Example 7A]",< 100
6,"C[C@@H](COC[C@H](O)C(=O)N1CCN(c2ncc(C(F)(F)F)cn2)CC1)Oc1cn[nH]c(=O)c1C(F)(F)F (single isomer, unassigned) [Example 7B]",< 100
7,"C[C@@H](COC[C@@H](O)C(=O)N1CCN(c2ncc(C(F)(F)F)cn2)CC1)Oc1cn[nH]c(=O)c1Br (single isomer, unassigned) [Example 12A]",< 100
8,"C[C@@H](COC[C@H](O)C(=O)N1CCN(c2ncc(C(F)(F)F)cn2)CC1)Oc1cn[nH]c(=O)c1Br (single isomer, unassigned) [Example 12B]",< 100
9,"[2H]C1([2H])N(C(=O)[C@H](O)COC[C@H](C)Nc2cn[nH]c(=O)c2C(F)(F)F)C([2H])([2H])C([2H])([2H])N(c2ncc(C(F)(F)F)cn2)C1([2H])[2H] (single isomer, unassigned) [Example 13A]",< 100
10,"[2H]C1([2H])N(C(=O)[C@@H](O)COC[C@H](C)Nc2cn[nH]c(=O)c2C(F)(F)F)C([2H])([2H])C([2H])([2H])N(c2ncc(C(F)(F)F)cn2)C1([2H])[2H] (single isomer, unassigned) [Example 13B]",< 100
11,"O=C([C@H](O)COC[C@@H]1c2ccccc2CN1c1cn[nH]c(=O)c1C(F)(F)F)N1CCN(c2ncc(C(F)(F)F)cn2)CC1 (single isomer, unassigned) [Example 17A]",< 100
12,"O=C([C@H](O)COC[C@H]1c2ccccc2CN1c1cn[nH]c(=O)c1C(F)(F)F)N1CCN(c2ncc(C(F)(F)F)cn2)CC1 (single isomer, unassigned) [Example 17B]",< 100
13,"O=C([C@@H](O)COC[C@@H]1c2ccccc2CN1c1cn[nH]c(=O)c1C(F)(F)F)N1CCN(c2ncc(C(F)(F)F)cn2)CC1 (single isomer, unassigned) [Example 17C]",< 100
14,"O=C([C@@H](O)COC[C@H]1c2ccccc2CN1c1cn[nH]c(=O)c1C(F)(F)F)N1CCN(c2ncc(C(F)(F)F)cn2)CC1 (single isomer, unassigned) [Example 17D]",< 100
15,"C[C@@H](COC[C@@H](O)C(=O)N1CCN(c2cnc(C(F)(F)F)cn2)CC1)Nc1cn[nH]c(=O)c1C(F)(F)F [Example 2A, 5-(((S)-1-((R)-2-hydroxy-3-oxo-3-(4-(5-(trifluoromethyl)pyrazin-2-yl)piperazin-1-yl)propoxy)propan-2-yl)amino)-4-(trifluoromethyl)pyridazin-3(2H)-one]",< 100
16,"C[C@@H](COC[C@H](O)C(=O)N1CCN(c2cnc(C(F)(F)F)cn2)CC1)Nc1cn[nH]c(=O)c1C(F)(F)F [Example 2B, 5-(((S)-1-((S)-2-hydroxy-3-oxo-3-(4-(5-(trifluoromethyl)pyrazin-2-yl)piperazin-1-yl)propoxy)propan-2-yl)amino)-4-(trifluoromethyl)pyridazin-3(2H)-one]",< 100
17,"C[C@@H](COC[C@@H](O)C(=O)N1CCN(c2ncc(C(F)(F)F)s2)CC1)Nc1cn[nH]c(=O)c1C(F)(F)F [Example 3A, 5-((S)-1-((R)-2-hydroxy-3-oxo-3-(4-(5-(trifluoromethyl)thiazol-2-yl)piperazin-1-yl)propoxy)propan-2-ylamino)-4-(trifluoromethyl)pyridazin-3(2H)-one]",< 100
18,"C[C@@H](COC[C@H](O)C(=O)N1CCN(c2ncc(C(F)(F)F)s2)CC1)Nc1cn[nH]c(=O)c1C(F)(F)F [Example 3B, 5-((S)-1-((S)-2-hydroxy-3-oxo-3-(4-(5-(trifluoromethyl)thiazol-2-yl)piperazin-1-yl)propoxy)propan-2-ylamino)-4-(trifluoromethyl)pyridazin-3(2H)-one]",< 100
19,"C[C@@H](COC[C@@H](O)C(=O)N1CCN(c2ncc(C(F)F)cn2)CC1)Nc1cn[nH]c(=O)c1C(F)(F)F [Example 4A, 5-(((S)-1-((R)-3-(4-(5-(difluoromethyl)pyrimidin-2-yl)piperazin-1-yl)-2-hydroxy-3-oxopropoxy)propan-2-yl)amino)-4-(trifluoromethyl)pyridazin-3(2H)-one]",< 100
20,"C[C@@H](COC[C@H](O)C(=O)N1CCN(c2ncc(C(F)F)cn2)CC1)Nc1cn[nH]c(=O)c1C(F)(F)F [Example 4B, 5-(((S)-1-((S)-3-(4-(5-(difluoromethyl)pyrimidin-2-yl)piperazin-1-yl)-2-hydroxy-3-oxopropoxy)propan-2-yl)amino)-4-(trifluoromethyl)pyridazin-3(2H)-one]",< 100
21,"C[C@@H](COCC(C)(O)C(=O)N1CCN(c2ncc(C(F)(F)F)cn2)CC1)Nc1cn[nH]c(=O)c1C(F)(F)F (stereo partly drawn) [Example 5, 5-(((2S)-1-(2-hydroxy-2-methyl-3-oxo-3-(4-(5-(trifluoromethyl)pyrimidin-2-yl)piperazin-1-yl)propoxy)propan-2-yl)amino)-4-(trifluoromethyl)pyridazin-3(2H)-one]",< 100
22,"C[C@@H](COC[C@@H](O)C(=O)N1CCN(c2cnc(C(F)(F)F)cn2)CC1)Oc1cn[nH]c(=O)c1C(F)(F)F [Example 8A, 5-(((S)-1-((R)-2-hydroxy-3-oxo-3-(4-(5-(trifluoromethyl)pyrazin-2-yl)piperazin-1-yl)propoxy)propan-2-yl)oxy)-4-(trifluoromethyl)pyridazin-3(2H)-one]",< 100
23,"C[C@@H](COC[C@H](O)C(=O)N1CCN(c2cnc(C(F)(F)F)cn2)CC1)Oc1cn[nH]c(=O)c1C(F)(F)F [Example 8B, 5-(((S)-1-((S)-2-hydroxy-3-oxo-3-(4-(5-(trifluoromethyl)pyrazin-2-yl)piperazin-1-yl)propoxy)propan-2-yl)oxy)-4-(trifluoromethyl)pyridazin-3(2H)-one]",< 100
24,"C[C@@H](COC[C@@H](O)C(=O)N1CCN(c2ncc(Cl)cn2)CC1)Oc1cn[nH]c(=O)c1C(F)(F)F [Example 9A, 5-(((S)-1-((R)-3-(4-(5-chloropyrimidin-2-yl)piperazin-1-yl)-2-hydroxy-3-oxopropoxy)propan-2-yl)oxy)-4-(trifluoromethyl)pyridazin-3(2H)-one]",< 100
25,"C[C@@H](COC[C@@H](O)C(=O)N1CCN(c2ccc(C#N)cn2)CC1)Oc1cn[nH]c(=O)c1C(F)(F)F [Example 10A, 6-(4-((R)-2-hydroxy-3-((S)-2-((6-oxo-5-(trifluoromethyl)-1,6-dihydropyridazin-4-yl)oxy)propoxy)propanoyl)piperazin-1-yl)nicotinonitrile]",< 100
26,"C[C@@H](COC[C@@H](O)C(=O)N1CCN(c2ncc(C(F)F)cn2)CC1)Oc1cn[nH]c(=O)c1C(F)(F)F [Example 11A, 5-(((S)-1-((R)-3-(4-(5-(difluoromethyl)pyrimidin-2-yl)piperazin-1-yl)-2-hydroxy-3-oxopropoxy)propan-2-yl)oxy)-4-(trifluoromethyl)pyridazin-3(2H)-one]",< 100
